Source: ChEMBL document CHEMBL4359919, “Discovery and synthesis of 3- and 21-substituted fusidic acid derivatives as reversal agents of P-glycoprotein-mediated multidrug resistance” (Eur J Med Chem, 2019)
Active and inactive are the calls of the source. The calls are words filed in the database; no cut-off is given here.

Columns and labels:
[1] = biological target: T1, ATP-dependent translocase ABCB1 (Homo sapiens, UniProt P08183); assay: Reversal of P-gp-mediated multidrug resistance in human KBV cells assessed as potentiation of paclitaxel-induced cytotoxicity by measuring cell survival at 5 uM after 72 hrs by MTT assay (reference value: 100.58 +/- 7.78%); assay type: cell-based
[2] = Cytotoxicity against human KBV cells assessed as cell survival at 5 uM after 72 hrs by MTT assay relative to control; assay type: cell-based; settings: read-out: Survival
[3] = biological target: T1, ATP-dependent translocase ABCB1; assay: Reversal of P-gp-mediated multidrug resistance in human KBV cells assessed as potentiation of paclitaxel-induced cell cycle arrest by measuring accumulation at G2/M phase at 5 to 10 uM after 24 hrs by RNase/propidium iodide staining based flow cytometry
[4] = biological target: T1, ATP-dependent translocase ABCB1; assay: Reversal of P-gp-mediated multidrug resistance in human KBV cells assessed as potentiation of paclitaxel-induced apoptosis after 24 hrs by RNase/propidium iodide staining based flow cytometry; assay type: cell-based
[5] = biological target: T1, ATP-dependent translocase ABCB1; assay: Inhibition of P-gp-mediated Rh-123 efflux in human KBV cells assessed as Rh-123 accumulation at 10 uM preincubated for 2 hrs followed by Rh-123 addition measured after 30 mins by flow cytometry; assay type: cell-based; settings: 0.5 h
[6] = biological target: T1, ATP-dependent translocase ABCB1; assay: Inhibition of P-gp-mediated Flutax1 efflux in human KBV cells assessed as Flutax1 accumulation at 2 to 10 uM preincubated for 3 hrs followed by Flutax1 addition measured after 1 hr by flow cytometry; assay type: cell-based
Homo sapiens = species on record: Homo sapiens; assay: Downregulation of P-gp protein expression in human KBV cells at 5 to 10 uM after 24 hrs by western blot analysis; assay type: functional, cell-based
[7] = biological target: T1, ATP-dependent translocase ABCB1; assay: Stimulation of P-gp ATPase activity (unknown origin) assessed as increase in ATP consumption at 0.5 to 1 mM preincubated for 5 mins followed by Mg-ATP addition by P-gp-Glo luminescence assay

T1 sequence (P08183 whole entry): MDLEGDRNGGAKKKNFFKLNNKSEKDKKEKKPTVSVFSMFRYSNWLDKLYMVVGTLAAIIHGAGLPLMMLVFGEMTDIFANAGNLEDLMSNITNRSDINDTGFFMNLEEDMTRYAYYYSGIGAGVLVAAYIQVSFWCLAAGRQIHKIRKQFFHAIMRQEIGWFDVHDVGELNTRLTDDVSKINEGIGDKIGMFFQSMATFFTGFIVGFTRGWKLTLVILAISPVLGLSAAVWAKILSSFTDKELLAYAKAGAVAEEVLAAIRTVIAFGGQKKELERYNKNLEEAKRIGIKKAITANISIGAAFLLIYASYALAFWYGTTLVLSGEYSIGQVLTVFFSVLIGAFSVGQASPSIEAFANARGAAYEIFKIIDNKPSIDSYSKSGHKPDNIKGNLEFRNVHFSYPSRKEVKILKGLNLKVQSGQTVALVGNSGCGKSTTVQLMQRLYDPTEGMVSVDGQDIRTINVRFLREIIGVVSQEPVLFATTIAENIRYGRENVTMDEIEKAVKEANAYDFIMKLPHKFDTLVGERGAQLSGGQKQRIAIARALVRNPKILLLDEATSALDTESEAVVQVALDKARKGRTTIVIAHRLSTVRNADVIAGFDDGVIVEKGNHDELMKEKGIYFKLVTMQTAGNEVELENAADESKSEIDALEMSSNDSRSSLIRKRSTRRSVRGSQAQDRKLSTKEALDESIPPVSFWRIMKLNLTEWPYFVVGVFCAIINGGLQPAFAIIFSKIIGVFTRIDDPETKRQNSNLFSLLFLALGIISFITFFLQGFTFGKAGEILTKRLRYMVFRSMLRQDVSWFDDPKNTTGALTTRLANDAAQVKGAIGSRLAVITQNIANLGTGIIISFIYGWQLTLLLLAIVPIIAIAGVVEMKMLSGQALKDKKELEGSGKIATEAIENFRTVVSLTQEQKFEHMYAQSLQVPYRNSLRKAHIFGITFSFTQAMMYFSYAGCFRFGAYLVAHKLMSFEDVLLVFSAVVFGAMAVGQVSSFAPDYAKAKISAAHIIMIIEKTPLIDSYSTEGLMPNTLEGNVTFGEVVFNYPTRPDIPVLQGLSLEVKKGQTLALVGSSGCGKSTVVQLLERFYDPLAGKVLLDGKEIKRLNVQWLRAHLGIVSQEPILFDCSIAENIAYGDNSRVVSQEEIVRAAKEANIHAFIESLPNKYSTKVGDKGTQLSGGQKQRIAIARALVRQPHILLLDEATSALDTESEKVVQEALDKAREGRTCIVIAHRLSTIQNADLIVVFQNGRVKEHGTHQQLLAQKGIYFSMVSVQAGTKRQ

Compound	Survival [1]	viability at 72 h, 5 µM [2]	also measured
CC(=O)O[C@H]1C[C@@]2(C)[C@@H](C[C@@H](O)[C@H]3[C@@]4(C)CC[C@@H](OC(=O)c5ccccc5C(=O)N5CCCCC5)[C@@H](C)[C@@H]4CC[C@@]32C)/C1=C(\CCC=C(C)C)C(=O)OCc1ccccc1	36.37%	110%	
CC(=O)O[C@H]1C[C@@]2(C)[C@@H](C[C@@H](O)[C@H]3[C@@]4(C)CC[C@@H](OC(=O)c5ccccc5C(=O)OCCc5ccc(OCCO[N+](=O)[O-])cc5)[C@@H](C)[C@@H]4CC[C@@]32C)/C1=C(\CCC=C(C)C)C(=O)OCc1ccccc1	90.45%	85.9%	
CC(=O)O[C@H]1C[C@@]2(C)[C@@H](CC(=O)[C@H]3[C@@]4(C)CC[C@@H](OC(=O)CCCCCO[N+](=O)[O-])[C@@H](C)[C@@H]4CC[C@@]32C)/C1=C(\CCC=C(C)C)C(=O)OCc1ccccc1	62.17%	115%	
CC(=O)O[C@H]1C[C@@]2(C)[C@@H](C[C@@H](O)[C@H]3[C@@]4(C)CC[C@@H](OC(=O)CCCCO[N+](=O)[O-])[C@@H](C)[C@@H]4CC[C@@]32C)/C1=C(\CCC=C(C)C)C(=O)OCc1ccccc1	96.92%	107%	
CC(=O)O[C@H]1C[C@@]2(C)[C@@H](C[C@@H](O)[C@H]3[C@@]4(C)CC[C@@H](OC(=O)CCC(=O)Nc5ccc(N)cc5)[C@@H](C)[C@@H]4CC[C@@]32C)/C1=C(\CCC=C(C)C)C(=O)OCc1ccccc1	22.26%	136%	
CC(=O)O[C@H]1C[C@@]2(C)[C@@H](C[C@@H](O)[C@H]3[C@@]4(C)CC[C@@H](OC(=O)c5ccccc5C(=O)Nc5cccc(N)c5)[C@@H](C)[C@@H]4CC[C@@]32C)/C1=C(\CCC=C(C)C)C(=O)OCc1ccccc1	29.28%	95.8%	
CC(=O)O[C@H]1C[C@@]2(C)[C@@H](C[C@@H](O)[C@H]3[C@@]4(C)CC[C@@H](OC(=O)CCC(=O)Oc5ccc(CCO[N+](=O)[O-])cc5)[C@@H](C)[C@@H]4CC[C@@]32C)/C1=C(\CCC=C(C)C)C(=O)OCc1ccccc1	99.95%	114%	
CC(=O)O[C@H]1C[C@@]2(C)[C@@H](C[C@@H](O)[C@H]3[C@@]4(C)CC[C@@H](OC(=O)c5ccccc5C(=O)Nc5ccc(N)cc5)[C@@H](C)[C@@H]4CC[C@@]32C)/C1=C(\CCC=C(C)C)C(=O)OCc1ccccc1	23.58%	118%	
CC(=O)O[C@H]1C[C@@]2(C)[C@@H](CC(=O)[C@H]3[C@@]4(C)CCC(=O)[C@@H](C)[C@@H]4CC[C@@]32C)/C1=C(\CCC=C(C)C)C(=O)OCc1ccccc1	27.6%	96.6%	
CC(=O)O[C@H]1C[C@@]2(C)[C@@H](C[C@@H](O)[C@H]3[C@@]4(C)CC[C@@H](OC(=O)CCC(=O)Nc5cccc(N)c5)[C@@H](C)[C@@H]4CC[C@@]32C)/C1=C(\CCC=C(C)C)C(=O)OCc1ccccc1	24.8%	135%	
CC(=O)O[C@H]1C[C@@]2(C)[C@@H](C[C@@H](O)[C@H]3[C@@]4(C)CC[C@@H](OC(=O)CCC(=O)N5CCOCC5)[C@@H](C)[C@@H]4CC[C@@]32C)/C1=C(\CCC=C(C)C)C(=O)OCc1ccccc1	31.93%	20.5%	
CC(=O)O[C@H]1C[C@@]2(C)[C@@H](C[C@@H](O)[C@H]3[C@@]4(C)CC[C@@H](O)[C@@H](C)[C@@H]4CC[C@@]32C)/C1=C(\CCC=C(C)C)C(=O)OCc1ccccc1	18.6%	92%	Activity [3]: Active; Activity [4]: Active; inhibition (INH) [5]: Active; inhibition (INH) [6]: Active; Activity (Homo sapiens): inactive; Activity [7]: Active
CC(=O)O[C@H]1C[C@@]2(C)[C@@H](C[C@@H](O)[C@H]3[C@@]4(C)CC[C@@H](OC(=O)CCCCCO[N+](=O)[O-])[C@@H](C)[C@@H]4CC[C@@]32C)/C1=C(\CCC=C(C)C)C(=O)OCc1ccccc1	20.79%	94.1%	
CC(=O)O[C@H]1C[C@@]2(C)[C@@H](CC(=O)[C@H]3[C@@]4(C)CC[C@@H](OC(=O)CCCCO[N+](=O)[O-])[C@@H](C)[C@@H]4CC[C@@]32C)/C1=C(\CCC=C(C)C)C(=O)OCc1ccccc1	20.75%	112%	
CC(=O)O[C@H]1C[C@@]2(C)[C@@H](C[C@@H](O)[C@H]3[C@@]4(C)CC[C@@H](OC(=O)c5ccccc5C(=O)N5CCOCC5)[C@@H](C)[C@@H]4CC[C@@]32C)/C1=C(\CCC=C(C)C)C(=O)OCc1ccccc1	37.96%	76%	
CCN1CCN(C(=O)CCC(=O)O[C@@H]2CC[C@@]3(C)[C@@H](CC[C@@]4(C)[C@H]3[C@H](O)C[C@H]3/C(=C(\CCC=C(C)C)C(=O)OCc5ccccc5)[C@@H](OC(C)=O)C[C@@]34C)[C@@H]2C)CC1	34.43%	99.8%	
CC(=O)O[C@H]1C[C@@]2(C)[C@@H](C[C@@H](O)[C@H]3[C@@]4(C)CC[C@@H](OC(=O)CCC(=O)OCCc5ccc(OCCO[N+](=O)[O-])cc5)[C@@H](C)[C@@H]4CC[C@@]32C)/C1=C(\CCC=C(C)C)C(=O)OCc1ccccc1	101.31%	110%	
CC(=O)O[C@H]1C[C@@]2(C)[C@@H](C[C@@H](O)[C@H]3[C@@]4(C)CC[C@@H](OC(=O)c5ccccc5C(=O)Oc5ccc(CCO[N+](=O)[O-])cc5)[C@@H](C)[C@@H]4CC[C@@]32C)/C1=C(\CCC=C(C)C)C(=O)OCc1ccccc1	75.04%	87.5%	
CC(=O)O[C@H]1C[C@@]2(C)[C@@H](C[C@@H](O)[C@H]3[C@@]4(C)CC[C@@H](OC(=O)c5ccccc5C(=O)N5CCN(C)CC5)[C@@H](C)[C@@H]4CC[C@@]32C)/C1=C(\CCC=C(C)C)C(=O)OCc1ccccc1	69.5%	100%	
CC(=O)O[C@H]1C[C@@]2(C)[C@@H](C[C@@H](O)[C@H]3[C@@]4(C)CC[C@@H](O)[C@@H](C)[C@@H]4CC[C@@]32C)/C1=C(\CCC=C(C)C)C(=O)O [FUSIDIC ACID]	87.77%	84.7%	
COc1ccc(CCN(C)CCCC(C#N)(c2ccc(OC)c(OC)c2)C(C)C)cc1OC (stereo not given) [VERAPAMIL]	23.05%		
CC(=O)O[C@H]1C[C@@]2(C)[C@@H](C[C@@H](O)[C@H]3[C@@]4(C)CC[C@@H](OC(=O)CCC(=O)N5CCN(C)CC5)[C@@H](C)[C@@H]4CC[C@@]32C)/C1=C(\CCC=C(C)C)C(=O)OCc1ccccc1	33.67%	30.1%	
CC(=O)O[C@H]1C[C@@]2(C)[C@@H](C[C@@H](O)[C@H]3[C@@]4(C)CC[C@@H](O)[C@@H](C)[C@@H]4CC[C@@]32C)/C1=C(\CCC=C(C)C)C(=O)Oc1ccc(CCO[N+](=O)[O-])cc1	45.82%	83.7%	
CC(=O)O[C@H]1C[C@@]2(C)[C@@H](C[C@@H](O)[C@H]3[C@@]4(C)CC[C@@H](OC(=O)CCC(=O)N5CCCCC5)[C@@H](C)[C@@H]4CC[C@@]32C)/C1=C(\CCC=C(C)C)C(=O)OCc1ccccc1	35.31%	122%	
CCN1CCN(C(=O)c2ccccc2C(=O)O[C@@H]2CC[C@@]3(C)[C@@H](CC[C@@]4(C)[C@H]3[C@H](O)C[C@H]3/C(=C(\CCC=C(C)C)C(=O)OCc5ccccc5)[C@@H](OC(C)=O)C[C@@]34C)[C@@H]2C)CC1	20.76%	27.3%	
